Residues, ends and D or L forms follow the SMILES beside them. *: point of attachment. Bz = O=C(c1ccccc1)*
target: T1, Secreted cathepsin L 1 (Fasciola hepatica, UniProt Q7JNQ9); test: Cathepsin L Enzyme Assay
T1 sequence (Q7JNQ9 whole entry): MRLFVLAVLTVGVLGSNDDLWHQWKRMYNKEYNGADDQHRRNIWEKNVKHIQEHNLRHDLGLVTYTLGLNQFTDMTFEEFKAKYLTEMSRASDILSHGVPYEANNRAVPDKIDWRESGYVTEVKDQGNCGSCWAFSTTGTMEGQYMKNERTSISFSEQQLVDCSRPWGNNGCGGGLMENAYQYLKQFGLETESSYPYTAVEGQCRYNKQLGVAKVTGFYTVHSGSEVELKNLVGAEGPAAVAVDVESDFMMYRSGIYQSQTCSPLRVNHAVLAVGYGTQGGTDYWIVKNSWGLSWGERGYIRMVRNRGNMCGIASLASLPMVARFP
Description: The protease was activated by the addition of dithiothreitol, ethylenediaminetetraacetic acid (EDTA), and sodium acetate followed by incubation at 37°C for 2 h. Proteinase activity was measured fluorometrically using Z-Phe-Arg-NHMec as substrate. The substrate was stored as a 1 mM stock solution in dimethyl sulfoxide (DMSO). Assays were carried out using a final concentration of 10 μM substrate in 0.1 M sodium acetate containing 0.1 M dithiothreitol and […]. The enzyme and inhibitor were incubated together for 15 min at 37°C, at which stage the substrate was added. The mixture was incubated at 37°C for 30 min. The reaction was stopped by the addition of 150 μL of a 10% acetic acid solution. The amount of 7-amino-4-methylcoumarin (-NHMec) released was measured using a PerkinElmer fluorescence spectrophotometer with excitation set at 370 nm and emission at 440 nm.

Row | SMILES | IC50 [µM]
1 | CC(C)C[C@H](NC(=O)c1c(F)c(F)c(F)c(F)c1F)C(=O)NCC#N [N-2,3,4,5,6-pentafluorobenzoyl-L-leucine-glycine nitrile (33)] | 4.4
2 | CC(C)C[C@H](NC(=O)c1cc(F)c(F)c(F)c1F)C(=O)NCC#N [N-2,3,4,5-tetrafluorobenzoyl-L-leucine-glycine nitrile (32)] | 3.4
3 | CC(C)C[C@H](NC(=O)c1ccc(F)c(F)c1F)C(=O)NCC#N [N-2,3,4-trifluorobenzoyl-L-leucine-glycine nitrile (29)] | 4.1
4 | CC(C)C[C@H](NC(=O)c1c(F)ccc(F)c1F)C(=O)NCC#N [N-2,3,6-trifluorobenzoyl-L-leucine-glycine nitrile (28)] | 6
5 | CC(C)C[C@H](NC(=O)c1cc(F)c(F)cc1F)C(=O)NCC#N [N-2,4,5-trifluorobenzoyl-L-leucine-glycine nitrile] | 4.5
6 | CC(C)C[C@H](NC(=O)c1ccc(F)cc1F)C(=O)NCC#N [N-2,4-difluorobenzoyl-L-leucine-glycine nitrile (23)] | 5.5
7 | CC(C)C[C@H](NC(=O)c1cc(F)ccc1F)C(=O)NCC#N [N-2,5-difluorobenzoyl-L-leucine-glycine nitrile (24)] | 3.1
8 | CC(C)C[C@H](NC(=O)c1c(F)cccc1F)C(=O)NCC#N [N-2,6-difluorobenzoyl-L-leucine-glycine nitrile (25)] | 3.7
9 | C[C@H](NC(=O)c1ccccc1F)C(=O)NCC#N [N-2-fluorobenzoyl-L-alanine-glycine nitrile (15)] | 87.6
10 | C[C@H](NC(=O)c1ccccc1F)C(=O)NCCC#N [N-2-fluorobenzoyl-L-alanine-β-alanine nitrile (19)] | > 100
11 | CC(C)C[C@H](NC(=O)c1ccccc1C(F)(F)F)C(=O)NCC#N [N-2-trifluoromethylbenzoyl-L-leucine-glycine nitrile (34)] | 4.1
12 | CC(C)C[C@H](NC(=O)c1cc(F)c(F)c(F)c1)C(=O)NCC#N [N-3,4,5-trifluorobenzoyl-L-leucine-glycine nitrile] | 3.4
13 | CC(C)C[C@H](NC(=O)c1ccc(F)c(F)c1)C(=O)NCC#N [N-3,4-difluorobenzoyl-L-leucine-glycine nitrile (26)] | 3.1
14 | CC(C)C[C@H](NC(=O)c1cc(F)cc(F)c1)C(=O)NCC#N [N-3,5-difluorobenzoyl-L-leucine-glycine nitrile (27)] | 3
15 | CC(C)C[C@H](NC(=O)c1cccc(C(F)(F)F)c1)C(=O)NCC#N [N-3-trifluoromethylbenzoyl-L-leucine-glycine nitrile (35)] | 9.1
16 | CC(C)C[C@H](NC(=O)c1ccc(C(F)(F)F)cc1)C(=O)NCC#N [N-4-trifluoromethylbenzoyl-L-leucine-glycine nitrile (36)] | 3.2
17 | CC(C)C[C@H](NC(=O)c1ccccc1)C(=O)NCC(=O)O [N-benzoyl-L-leucine-glycine (37)] (Bz-Leu-Gly-OH) | 10
18 | C[C@H](NC(=O)c1c(F)c(F)c(F)c(F)c1F)C(=O)NCC#N [N-pentafluorobenzoyl-L-alanine-glycine nitrile (16)] | 68.3
19 | C[C@H](NC(=O)c1c(F)c(F)c(F)c(F)c1F)C(=O)NCCC#N [N-pentafluorobenzoyl-L-alanine-β-alanine nitrile (20)] | > 100
